Measurements: PubChem BioAssay AID330 (DTP/NCI, 2004)
Values joined by “and” are separate entries in the source; they are usually repeats but may differ in a detail not shown here. Identical values can stand only once. Inconclusive results and toxic doses are left out.

Test system: P388 leukemia ip, CD2F1 mice, survival T/C
Assay: NCI In Vivo Anticancer Drug Screen. Data for tumor model P388 Leukemia (intraperitoneal) in CD2F1 (CDF1) mice
Settings: endpoint: median survival time, higher = longer survival
Method in brief: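 Mice carrying the transplanted tumor received test compound or vehicle. Survival was recorded in each group, and the value is the treated-group measurement divided by that of the vehicle-treated control group.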

[1] = dose: 50.0 mg/kg/injection, schedule: Q01DX009 (ip), vehicle: Klucel (hydroxypropylcellulose) (HPC)
[2] = dose: 100.0 mg/kg/injection, schedule: Q01DX009 (ip), vehicle: Klucel (hydroxypropylcellulose) (HPC)
[3] = dose: 100.0 mg/kg/injection, schedule: Q01DX001 (ip), vehicle: Klucel (hydroxypropylcellulose) (HPC)
[4] = dose: 200.0 mg/kg/injection, schedule: Q01DX001 (ip), vehicle: Klucel (hydroxypropylcellulose) (HPC)
[5] = dose: 50.0 mg/kg/injection, schedule: Q01DX005 (ip), vehicle: saline with Tween-80
[6] = dose: 100.0 mg/kg/injection, schedule: Q01DX005 (ip), vehicle: saline with Tween-80

For `NC(=O)OCCCCOC(N)=O`, the T/C [1] was 100 % of control and the T/C [2] was 98 % of control.

In the case of `COc1ccc(C(=O)CCN(C)C)cc1`, the T/C (dose: 50.0 mg/kg/injection, schedule: Q01DX009 (ip), vehicle: saline) is reported as 104 % of control and the T/C (dose: 100.0 mg/kg/injection, schedule: Q01DX009 (ip), vehicle: saline) is reported as 104 % of control.

In the case of `Cc1nn(C(N)=S)c(C)c1N=Nc1ccc(F)cc1`, the T/C (dose: 25.0 mg/kg/injection, schedule: Q01DX005 (ip), vehicle: Klucel (hydroxypropylcellulose) (HPC)) is reported as 96 % of control, the T/C (dose: 50.0 mg/kg/injection, schedule: Q01DX005 (ip), vehicle: Klucel (hydroxypropylcellulose) (HPC)) is reported as 102 % of control and the T/C (dose: 100.0 mg/kg/injection, schedule: Q01DX005 (ip), vehicle: Klucel (hydroxypropylcellulose) (HPC)) is reported as 90 % of control.

In the case of `Cc1ccc(S(=O)(=O)N/N=C/c2c(Cl)n(C(=O)c3cccc(C)c3)c3ccccc23)cc1`, the T/C (dose: 50.0 mg/kg/injection, schedule: Q01DX001 (ip), vehicle: Klucel (hydroxypropylcellulose) (HPC)) is reported as 97 % of control, the T/C [3] is reported as 90 % of control and the T/C [4] is reported as 87 % of control.

In the case of `CCCCCCCCCCCCNNC(=O)[C@@H]1[C@H](c2cc(OC)c(OC)c(OC)c2)c2cc3c(cc2[C@H](O)[C@H]1CO)OCO3`, the T/C [5] is reported as 117 % of control and 124 % of control and the T/C [6] is reported as 122 % of control.

`COc1cc2c(OC)c(c1)CCc1cc(OC)c(cc1OC)CC2` was tested, and the T/C [5] was 97 % of control, the T/C [6] was 97 % of control and the T/C (dose: 200.0 mg/kg/injection, schedule: Q01DX005 (ip), vehicle: saline with Tween-80) was 94 % of control.

In the case of `CCN1C(N)=NS(=O)(=O)c2ccccc21`, the T/C (dose: 100.0 mg/kg/injection, schedule: Q04DX002 (ip), vehicle: saline with Tween-80) is reported as 104 % of control, the T/C (dose: 200.0 mg/kg/injection, schedule: Q04DX002 (ip), vehicle: saline with Tween-80) is reported as 104 % of control and the T/C (dose: 400.0 mg/kg/injection, schedule: Q04DX002 (ip), vehicle: saline with Tween-80) is reported as 106 % of control.

In the case of `O=C1NC(Cc2ccccc2)C(=O)N2CSCC12` (stereo unspecified), the T/C [3] is reported as 94 % of control, the T/C [4] is reported as 99 % of control and the T/C (dose: 400.0 mg/kg/injection, schedule: Q01DX001 (ip), vehicle: Klucel (hydroxypropylcellulose) (HPC)) is reported as 105 % of control.

`O=C(O)C(=O)O.[NH-]CCC[NH-].[Pt+2]` was tested, and the T/C (dose: 0.63 mg/kg/injection, schedule: Q04DX003 (ip), vehicle: other) was 88 % of control, the T/C (dose: 2.5 mg/kg/injection, schedule: Q04DX003 (ip), vehicle: other) was 153 % of control and the T/C (dose: 5.0 mg/kg/injection, schedule: Q04DX003 (ip), vehicle: other) was 160 % of control. For the same molecule, the T/C (dose: 6.25 mg/kg/injection, schedule: Q04DX002 (ip), vehicle: saline) was 158 % of control and the T/C (dose: 12.5 mg/kg/injection, schedule: Q04DX002 (ip), vehicle: saline) was 203 % of control.

For `C=C(C)C(=O)OC1CCC2(C)C(CCC3C2CCC2(C)C(c4ccc(=O)oc4)CC4OC432)C1` (stereo unspecified), the T/C (dose: 1.25 mg/kg/injection, schedule: Q01DX009 (ip), vehicle: saline with Tween-80) was 98 % of control, the T/C (dose: 2.5 mg/kg/injection, schedule: Q01DX009 (ip), vehicle: saline with Tween-80) was 100 % of control and the T/C (dose: 5.0 mg/kg/injection, schedule: Q01DX009 (ip), vehicle: saline with Tween-80) was 122 % of control. For the same molecule, the T/C (dose: 10.0 mg/kg/injection, schedule: Q01DX009 (ip), vehicle: saline with Tween-80) was 106 % of control and the T/C (dose: 20.0 mg/kg/injection, schedule: Q01DX009 (ip), vehicle: saline with Tween-80) was 100 % of control.

`NC(CC(=O)O)C(=O)OCc1cccc(N=Nc2ccccc2)c1` (stereo unspecified) was tested, and the T/C (dose: 50.0 mg/kg/injection, schedule: Q04DX003 (ip), vehicle: saline with Tween-80) was 99 % of control, the T/C (dose: 100.0 mg/kg/injection, schedule: Q04DX003 (ip), vehicle: saline with Tween-80) was 90 % of control and the T/C (dose: 200.0 mg/kg/injection, schedule: Q04DX003 (ip), vehicle: saline with Tween-80) was 93 % of control.

`CCCCCCCCN(C)N=Nc1ccccc1C(=O)O` was tested, and the T/C (dose: 12.5 mg/kg/injection, schedule: Q01DX009 (ip), vehicle: Klucel (hydroxypropylcellulose) (HPC)) was 105 % of control, the T/C (dose: 25.0 mg/kg/injection, schedule: Q01DX009 (ip), vehicle: Klucel (hydroxypropylcellulose) (HPC)) was 118 % of control and the T/C [1] was 115 % of control. For the same molecule, the T/C [2] was 108 % of control.

With `Cc1noc2c1C(=O)c1ccccc1SC2` the T/C (dose: 60.0 mg/kg/injection, schedule: Q01DX005 (ip), vehicle: saline with Tween-80) was 103 % of control, the T/C (dose: 120.0 mg/kg/injection, schedule: Q01DX005 (ip), vehicle: saline with Tween-80) was 94 % of control and the T/C (dose: 240.0 mg/kg/injection, schedule: Q01DX005 (ip), vehicle: saline with Tween-80) was 105 % of control.
